# Laboratory results: patent EP0472181B1, “5-Amine substituted adenosine analogs as immunosuppressants” (MERRELL PHARMACEUTICALS INC., priority 1990, dated 1992)
# Experiments:
# [1] = tested on: Cloned IL-2 dependent cytolytic T lymphocytes (CTLL-20); assay: Inhibition of interleukin-2 dependent T-cell growth in vitro: cell counts by trypan blue exclusion; assay type: cell-based; settings: 10 Units/mL IL-2
# Description: (§1) Inhibition of interleukin-2 (IL-2) dependent T-cell growth in vitro was determined essentially as described by Bowlin et al. [Cell Immunol. 98, 341-50 (1986)]. Cloned IL-2 dependent cytolytic T lymphocytes (CTLL-20), incubated alone or in the presence of (cis)-5'-deoxy-5'-[(4-amino-2-butenyl) methylamino]adenosine (Compound A) at varying concentrations, were stimulated with 10 Units/mL of IL-2 and were grown in culture. After 72 hours, cell counts were determined based on trypan blue exclusion.
# as §1, with “in Example X.” for “by Bowlin et al. [Cell Immunol. 98, 341-50 (1986)].”, “100µM,” for “varying concentrations,”, “culture for 1, 2, 3 or 4 days. At the end of incubation,” for “culture. After 72 hours,”
# [2] = tested on: Cloned IL-2 dependent cytolytic T lymphocytes (CTLL-20); assay: Inhibition of interleukin-2 dependent T-cell growth in vitro: DNA synthesis activity by [^3H]-TdR pulse after IL-2 restimulation; assay type: cell-based; settings: [^3H]-TdR final 6 hours
# Description: The CTLL-20 cells were restimulated with IL-2 (10 units/mL) for 24 hours and were pulsed for the final 6 hours with [^3H]-TdR to measure DNA synthesis activity essentially as described by Bowlin et al. [Cell Immunol. 98, 341-50 (1986)].
# The CTLL-20 cells were then restimulated with IL-2 (10 units/mL) for 24 hours and were pulsed for the final 6 hours with [^3H]-TdR to measure DNA synthesis activity essentially as described for Example X.
structure (smiles),measurement,setting,value
"CN(C/C=C\CN)C[C@H]1O[C@@H](n2cnc3c(N)ncnc32)[C@H](O)[C@@H]1O (relative stereo) [Compound A, (cis)-5'-deoxy-5'-[(4-amino-2-butenyl)methylamino]adenosine]",Cell Count Number Recovered,"[1]; Compound A 1 µM, after 72 hours",4.0x10^6
same,Cell Count Number Recovered,"[1]; Compound A 10 µM, after 72 hours",2.0x10^6
same,Cell Count Number Recovered,"[1]; Compound A 100 µM, after 72 hours",1.0x10^6
same,inhibition at 100 µM,"[1]; T-lymphocyte, 24 h, time course: incubation time 1 day, Compound A 100 µM, read-out: Cell Count (% Reduction over Control) (converted)",40%
same,inhibition at 100 µM,"[1]; T-lymphocyte, 48 h, time course: incubation time 2 days, Compound A 100 µM, read-out: Cell Count (% Reduction over Control) (converted)",78%
same,inhibition at 100 µM,"[1]; T-lymphocyte, 72 h, time course: incubation time 3 days, Compound A 100 µM, read-out: Cell Count (% Reduction over Control) (converted)",85%
same,inhibition at 100 µM,"[1]; T-lymphocyte, 96 h, time course: incubation time 4 days, Compound A 100 µM, read-out: Cell Count (% Reduction over Control) (converted)",64%
same,inhibition at 1 µM,"[1]; T-lymphocyte, Compound A 1 µM, after 72 hours, read-out: Cell Count (% Reduction over Group 1) (converted)",39%
same,inhibition at 10 µM,"[1]; T-lymphocyte, Compound A 10 µM, after 72 hours, read-out: Cell Count (% Reduction over Group 1) (converted)",70%
same,inhibition at 100 µM,"[1]; T-lymphocyte, Compound A 100 µM, after 72 hours, read-out: Cell Count (% Reduction over Group 1) (converted)",85%
same,Cell Count Number Recovered,"[1]; time course: incubation time 1 day, Compound A 100 µM",0.3x10^6
same,Cell Count Number Recovered,"[1]; time course: incubation time 2 days, Compound A 100 µM",0.7x10^6
same,Cell Count Number Recovered,"[1]; time course: incubation time 3 days, Compound A 100 µM",1.0x10^6
same,Cell Count Number Recovered,"[1]; time course: incubation time 4 days, Compound A 100 µM",1.7x10^6
same,DNA Synthesis CPM,"[2]; Compound A 1 µM, 72 hours culture, restimulated with IL-2 10 units/mL for 24 hours",19218 CPM
same,DNA Synthesis CPM,"[2]; Compound A 10 µM, 72 hours culture, restimulated with IL-2 10 units/mL for 24 hours",10005 CPM
same,DNA Synthesis CPM,"[2]; Compound A 100 µM, 72 hours culture, restimulated with IL-2 10 units/mL for 24 hours",8114 CPM
same,inhibition at 100 µM,"[2]; T-lymphocyte, 48 h, time course: incubation time 2 days, Compound A 100 µM, then IL-2 restimulation 24 hours, read-out: DNA Synthesis (% Reduction over Control)",45%
same,inhibition at 100 µM,"[2]; T-lymphocyte, 72 h, time course: incubation time 3 days, Compound A 100 µM, then IL-2 restimulation 24 hours, read-out: DNA Synthesis (% Reduction over Control)",76%
same,inhibition at 100 µM,"[2]; T-lymphocyte, 96 h, time course: incubation time 4 days, Compound A 100 µM, then IL-2 restimulation 24 hours, read-out: DNA Synthesis (% Reduction over Control)",73%
same,inhibition at 1 µM,"[2]; T-lymphocyte, Compound A 1 µM, 72 hours culture, restimulated with IL-2 10 units/mL for 24 hours, read-out: DNA Synthesis (% Reduction over Group 1)",43%
same,inhibition at 10 µM,"[2]; T-lymphocyte, Compound A 10 µM, 72 hours culture, restimulated with IL-2 10 units/mL for 24 hours, read-out: DNA Synthesis (% Reduction over Group 1)",70%
same,inhibition at 100 µM,"[2]; T-lymphocyte, Compound A 100 µM, 72 hours culture, restimulated with IL-2 10 units/mL for 24 hours, read-out: DNA Synthesis (% Reduction over Group 1)",76%
same,inhibition at 100 µM,"[2]; T-lymphocyte, time course: incubation time 1 day, Compound A 100 µM, then IL-2 restimulation 24 hours, read-out: DNA Synthesis (% Reduction over Control)",59%
same,DNA Synthesis CPM,"[2]; time course: incubation time 1 day, Compound A 100 µM, then IL-2 restimulation 24 hours",7622 CPM
same,DNA Synthesis CPM,"[2]; time course: incubation time 2 days, Compound A 100 µM, then IL-2 restimulation 24 hours",6197 CPM
same,DNA Synthesis CPM,"[2]; time course: incubation time 3 days, Compound A 100 µM, then IL-2 restimulation 24 hours",8114 CPM
same,DNA Synthesis CPM,"[2]; time course: incubation time 4 days, Compound A 100 µM, then IL-2 restimulation 24 hours",8863 CPM
